Experimental data: patent US8273686B2, “Method for combating phytopathogenic fungi” (priority 2006, dated 2012)

How the values were obtained:
Assay type in all cases: cell-based
[1] = tested on: Ganoderma sp.; assay: Mycelium growth inhibition on PDA Petri dishes; details: mean of 3 repetitions
Experimental: (§1) The concentrations of active ingredient added to the culture medium were determined previously by diffusion of the product in agar inoculated for the corresponding species.
(§2) Subsequently the diameters of the pathogen growths (mm) were determined visually until the […] (pathogen in PDA medium without fungicide) fully colonised the Petri dishes.
(§3) Levels of inhibition of mycelium growth for different fungal species in relation to fungicide concentration. The results are expressed as percentages and represent the mean of 3 repetitions

[2] = tested on: Phaeoacremonium aleophilum; assay: Microtitre test, growth inhibition (optical density 405 nm); details: tested at 125, 31, 8, 2, 0.5 and 0.125 ppm a.i.; 7 and 14 days' incubation at 23° C.
Experimental: (§4) The products were provided as technical quality active ingredient. Stock solutions of the active ingredients were prepared in DMSO at a concentration of 10 000 ppm a.i. All products were tested at 125, 31, 8, 2, 0.5 and 0.125 ppm a.i.; the DMSO concentration was the same in all dilutions.
(§5) Spore suspensions of the test fungi were prepared in a yeast extract, Bacto peptone and glycerol liquid medium.
(§6) Equal volumes of test compound and spore suspension were added, in triplicate, to the wells of 96-well microtitre plates. The optical densities of the wells were measured with the aid of a photometer at 405 nm immediately after preparation.
(§7) Incubation of the plates followed at 23° C. Further optical density measurements were made after 7 and 14 days' incubation. Growth in the treated wells was compared with the growth in the control (=water) wells.

[3] = tested on: Phaeomoniella chlamydospora; assay: as above; details: tested at 125, 31, 8, 2, 0.5 and 0.125 ppm a.i.; 7 and 14 days' incubation at 23° C.
Experimental: as §4, §5, §6, §7

[4] = tested on: Botryosphaeria sp.; assay: Mycelium growth inhibition on PDA Petri dishes; details: mean of 3 repetitions
Experimental: (§8) Test pathogens were Phaeoacremonium sp., Phaemoniella chlamydospora and Fomitiporella vitis (pathogens associated with the Esca disease) as well as Cylindrocarpon destructans and Botryosphaeria sp. (pathogens frequently isolated from vine wood with Esca symptoms).
as §1, §2, §3

[5] = tested on: Cylindrocarpon destructans; assay: Mycelium growth inhibition on PDA Petri dishes; details: mean of 3 repetitions
Experimental: as §8, §1, §2, §3

[6] = tested on: Fomitiporella vitis; assay: Mycelium growth inhibition on PDA Petri dishes; details: mean of 3 repetitions
Experimental: as §8, §1, §2, §3

[7] = tested on: Phaeomoniella chlamydospora; assay: Mycelium growth inhibition on PDA Petri dishes; details: mean of 3 repetitions
Experimental: as §8, §1, §2, §3

[8] = tested on: Phaeoacremonium sp.; assay: Mycelium growth inhibition on PDA Petri dishes; details: mean of 3 repetitions
Experimental: as §8, §1, §2, §3

[9] = 0.1 ppm active ingredient (as Comet)
[10] = 1 ppm active ingredient (as Comet)
[11] = 10 ppm active ingredient (as Comet)
[12] = 100 ppm active ingredient (as Comet)
[13] = 1000 ppm active ingredient (as Comet)

COC(=O)N(OC)c1ccccc1COc1ccn(-c2ccc(Cl)cc2)n1 [pyraclostrobin]
Percentage mycelium inhibition [1, 9]: 21.18%
Percentage mycelium inhibition [1, 10]: 65.88%
Percentage mycelium inhibition [1, 11]: 91.37%
Percentage mycelium inhibition [1, 12]: 100.00%
Percentage mycelium inhibition [1, 13]: 100.00%
inhibition of the growth of Phaeoacremonium aleophilum [2]: strong to very strong
inhibition of the growth of Phaeomoniella chlamydospora [3]: strong to very strong
Percentage mycelium inhibition [4, 9]: 23.14%
Percentage mycelium inhibition [4, 10]: 48.04%
Percentage mycelium inhibition [4, 11]: 66.08%
Percentage mycelium inhibition [4, 12]: 88.43%
Percentage mycelium inhibition [4, 13]: 100.00%
Percentage mycelium inhibition [5, 9]: 33.33%
Percentage mycelium inhibition [5, 10]: 69.61%
Percentage mycelium inhibition [5, 11]: 86.67%
Percentage mycelium inhibition [5, 12]: 90.59%
Percentage mycelium inhibition [5, 13]: 100.00%
Percentage mycelium inhibition [6, 9]: 46.47%
Percentage mycelium inhibition [6, 10]: 92.75%
Percentage mycelium inhibition [6, 11]: 98.62%
Percentage mycelium inhibition [6, 12]: 100.00%
Percentage mycelium inhibition [6, 13]: 100.00%
Percentage mycelium inhibition [7, 9]: 64.91%
Percentage mycelium inhibition [7, 10]: 93.57%
Percentage mycelium inhibition [7, 11]: 95.32%
Percentage mycelium inhibition [7, 12]: 96.49%
Percentage mycelium inhibition [7, 13]: 100.00%
Percentage mycelium inhibition [8, 9]: 35.65%
Percentage mycelium inhibition [8, 10]: 61.00%
Percentage mycelium inhibition [8, 11]: 77.27%
Percentage mycelium inhibition [8, 12]: 88.28%
Percentage mycelium inhibition [8, 13]: 100.00%

CO/N=C(/C(=O)OC)c1ccccc1COc1ccccc1C [kresoxim-methyl]
inhibition of the growth of Phaeomoniella chlamydospora [3]: strong to very strong
